{
  "source": "patent US9895443B2",
  "about": "“Multi-tailed lipids and uses thereof” (Massachusetts Institute of Technology, priority 2013, dated 2018)",
  "key": {"[1]": {"tested_on": "Human red blood cells (RBCs)", "assay": "Hemolysis assay", "assay_type": "cell-based", "details": "endosomal pH 5.5, 37 C, one hour", "method": "Human red blood cells (RBCs, Innovative Research) were washed twice with 1×PBS and diluted in either 1×PBS or citrate buffer saline at pH 5.5 (CBS, 20 mM citrate buffer, 130 mM NaCl) to a 4% v/v RBC solution. In a v-bottom, 96-well plate, 100 μL of blank LNPs formulated at an equivalent concentration of 23.75 ng siRNA/μL (no siRNA was used) were added to 100 μL of the 4% v/v RBC solution in either PBS or CBS and heated to 37° C. for one hour. After cooling, the plate was centrifuged at 4° C. at 1000×g for 5 minutes. 100 μL of the supernatant was transferred into a clear 96-well assay plate and the UV absorption was read 540 nm. Positive and negative control experiments were carried out with 0.1% Triton-X (100%) and buffer alone, respectively."}, "HeLa cells [2]": {"tested_on": "HeLa cells", "assay": "Confocal microscopy of LNPs with FRET-labeled siRNA probes", "assay_type": "cell-based", "details": "50 ng FRET-labeled probes, one hour", "method": "HeLa cells were seeded at 1.5×10^4 cells per well in black (clear bottom) 96-well plates (Greiner Bio-one) and incubated for 24 hours prior to transfection. The cells were then transfected with the inventive LNPs containing 50 ng of FRET-labeled probes for one hour. The cells were washed, fixed, and counterstained in PBS containing Hoechst (2 μg/mL) for nuclei identification. The cells were then imaged using an automated spinning disk confocal microscope (OPERA, Perkin Elmer) with a 40× objective. The exposure rates were maintained constant for individual fluorophores across the 96-well plate. The images were acquired from the Acapella software with a 20 μm scale bar."}, "HeLa cells [3]": {"tested_on": "HeLa cells", "assay": "Intracellular FRET with FRET-labeled siRNA probes (flow cytometry)", "assay_type": "cell-based", "details": "early time point after transfection", "method": "(§1) Extracellular/Intracellular Fluorescence Resonance Energy Transfer (FRET) Assays and Cellular Uptake\n(§2) LNPs containing an equimolar mixture of siRNAs labeled with Alexa Fluor® 594 and Alexa Fluor® 647 were diluted to 10 ng siRNA/μL with 1×PBS and added to a black 96-well plate pre-plated with 20,000 HeLa cells at 37° C. Control wells contained LNPs with 1% Triton-X. To measure the FRET, the samples were excited at 540 nm, and the fluorescence intensity was read at 690 and 620 nm using a Tecan Safire 2 Microplate reader at 37° C. FRET was determined as the ratio of the fluorescence intensities at 690/620 nm. FRET signals for all LNPs were normalized to that of the control wells. For extracellular FRET experiments, an identical experiment was carried out without cells, and the FRET data obtained were similar. […] The trypsined cells were then neutralized with 120 μL of quenching media (25% cell culture media in 1×PBS) and transferred to a 96-well v-bottom plate and analyzed via flow cytometry. For each sample, 10,000 events were monitored and evaluated by a BD LSR II HTS flow cytometer (BD Bioscience). […] For cell uptake studies, LNPs formulated with just Alexa Fluor® 647 were analyzed using settings for the Alexa Fluor® 647 channel: exciation via a 633 nm (red, HeNe) laser and emission via a 660/20 nm filter."}, "[4]": {"assay": "6-p-toluidinyl-naphthalene-2-sulfonate (TNS) assay, apparent pKa of the LNPs", "assay_type": "physicochemical", "details": "TNS fluorescence titration pH 2.5 to 8.5, fully formulated LNP", "method": "6-p-toluidinyl-naphthalene-2-sulfonate (TNS) Assay\nA series of buffers with pH ranging between 2.5 and 8.5 were prepared by adjusting the pH of a solution containing 10 mM citrate, 10 mM phosphate, 10 mM borate, and 150 mM NaCl with 1N HCl. 90 μL of each buffer solution was added to a 96-well plate. A 300 μM stock solution of TNS was prepared in DMSO and 2 μL of this solution was added to the buffer solutions in the 96 well plate. After formulation, 10 μL of an LNP solution (prepared without siRNA) was added to the above mixture such that the synthesized lipid concentration (not co-lipids) in the final mixture was […]. The fluorescence of the resulting solution was obtained on a Tecan Safire 2 Microplate reader using an excitation wavelength of 325 nm and an emission wavelength of 435 nm. The fluorescence signal was plotted against pH and fitted using a three-parameter logistic equation (GraphPad Prism v.5.0a, GraphPad Software, San Diego Calif. USA). The pH value at which half of the maximum fluorescence is reached was reported as the apparent pKa of the LNPs."}, "[5]": {"tested_on": "HeLa cells stably modified to constitutively express both firefly and Renilla luciferases", "assay": "In vitro transfection: firefly luciferase silencing by LNP-siRNA (Dual-Glo)", "assay_type": "cell-based", "details": "LNPs with anti-firefly luciferase siRNA, serum containing media, 24 hours", "method": "Lipid nanoparticles were formulated by mixing an equal volume of an ethanolic solution of a lipid of the invention (e.g., a compound of the invention) and an […] at pH 3 to give a 5:1 synthesized lipid:siRNA ratio. The resulting solution was then diluted in an equal volume of 1× phosphate-buffered saline (PBS). The ethanolic lipid solution contained a mixture of synthesized lipids, cholesterol (Sigma Aldrich), 1,2-distearoyl-sn-glycero-3-phosphocholine (DSPC, Avanti Polar Lipids, Alabaster, Ala.) and mPEG2000-DMG (MW 2660, Alnylam Pharmaceuticals, Cambridge, Mass.) at a molar ratio of 50:38.5:10:1.5 in 200-proof ethanol. For all studies, the ethanolic lipid and siRNA solutions were hand mixed via pipette. The LNPs for in vivo use were also dialyzed for 75 minutes against 1×PBS in 3500 MW cut-off (MWCO) cassettes (Pierce/Thermo Scientific, Rockford, Ill.) prior to use.\nIn vitro transfection was performed on HeLa cells stably modified to constitutively express both firefly and Renilla luciferases. Cells were maintained at 37° C. in a 5% CO2 atmosphere in high glucose Dulbelco modified Eagles medium without phenol red (Invitrogen, Carlsbad, Calif.) supplemented with 10% fetal bovine serum (FBS, Invitrogen). Prior to transfection, 15,000 cells were seeded in white 96-well plates and allowed to attach overnight. On the day of transfection, the media was replaced with 90 μL of fresh media. LNPs were formulated at a concentration of 10 ng/μL and diluted with 1×PBS to obtain the desired concentration. For example, to achieve a transfection of 25 ng of siRNA per well, the 10 ng/μL stock was diluted 1:4 to give 2.5 ng/μL, and 10 μL of this solution was added to the cells in 90 μL of media. Lipofectamine (RNAiMAX) was used according to the manufacturer's instructions as a positive control. Relative firefly luciferase silencing was assessed approximately 24 hours after LNP addition using a Dual-Glo luciferase assay kit (Promega, Madison, Wis.). The firefly luciferase values were normalized to the Renilla luciferase values in order to correct for potential toxicity and/or off-target effects. All experiments were carried out in sextuplicates."}, "HeLa cells [6]": {"tested_on": "HeLa cells", "assay": "Cellular uptake of LNPs with Alexa Fluor 647 siRNA (flow cytometry)", "assay_type": "cell-based", "details": "two hours incubation, serum containing media", "method": "as §1, §2"}, "[7]": {"assay": "Dynamic light scattering, particle size", "assay_type": "physicochemical", "method": "After formulation, the LNPs-siRNA were diluted with 1×PBS to a final siRNA concentration of 2 μg/mL. The average particle size was measured via dynamic light scattering on a Malvern Zetasizer Nano ZS (Malvern Instruments, Worcestershire, UK). All experiments were carried out in triplicates."}},
  "note": "Entries after “also recorded” stand apart in the source; their conditions may differ.",
  "data": [
    {"compound": "CCCCCCCCCCSCC(COC(=O)CCN(CCCN(CC)CC)CCC(=O)OCC(CSCCCCCCCCCC)SCCCCCCCCCC)SCCCCCCCCCC", "note": "(centres unmarked) [I-2]", "values": [
      {"measurement": "LNP-mediated hemolysis of RBCs at pH 5.5", "setting": "[1]", "result": "hemolytic"},
      {"measurement": "intracellular location of LNPs", "setting": "HeLa cells [2]", "result": "located near the cell membrane and inside endocytic vesicles; also recorded: reside in the endocytic vesicles"}
    ]},
    {"compound": "CCCCCCCCCCSCC(COC(=O)CCN(CCC(=O)OCC(CSCCCCCCCCCC)SCCCCCCCCCC)CCN(C)C)SCCCCCCCCCC", "note": "(centres unmarked) [I-3]", "values": [
      {"measurement": "LNP-mediated hemolysis of RBCs at pH 5.5", "setting": "[1]", "result": "hemolytic"},
      {"measurement": "intracellular location of LNPs", "setting": "HeLa cells [2]", "result": "located near the cell membrane and inside endocytic vesicles; also recorded: reside in the endocytic vesicles"}
    ]},
    {"compound": "CCCCCCCCCCSCC(COC(=O)CCN(CCC(=O)OCC(CSCCCCCCCCCC)SCCCCCCCCCC)CCN(C(C)C)C(C)C)SCCCCCCCCCC", "note": "(centres unmarked) [I-4]", "values": [
      {"measurement": "intracellular FRET signal (uptake of intact LNPs)", "setting": "HeLa cells [3]", "result": "did not give an intracellular FRET signal"},
      {"measurement": "LNP pKa", "setting": "[4]", "result": "low pKa values"},
      {"measurement": "in vitro gene silencing (firefly luciferase, Luc/Ren)", "setting": "[5]", "result": "poor gene silencing; also recorded: limited gene silencing performance"},
      {"measurement": "in vitro gene silencing (firefly luciferase, Luc/Ren)", "setting": "[5]; listed as 4", "result": "low gene silencing"},
      {"measurement": "cellular uptake", "setting": "HeLa cells [6]", "result": "relatively high uptake"}
    ]},
    {"compound": "CCCCCCCCCCSCC(COC(=O)CCN(CCCN(CCCC)CCCC)CCC(=O)OCC(CSCCCCCCCCCC)SCCCCCCCCCC)SCCCCCCCCCC", "note": "(centres unmarked) [I-6]", "values": [
      {"measurement": "LNP pKa", "setting": "[4]", "result": "low pKa values"},
      {"measurement": "in vitro gene silencing (firefly luciferase, Luc/Ren)", "setting": "[5]", "result": "poor gene silencing"},
      {"measurement": "in vitro gene silencing (firefly luciferase, Luc/Ren)", "setting": "[5]; listed as 6", "result": "low gene silencing"}
    ]},
    {"compound": "CCCCCCCCCCSCC(COC(=O)CCN(CCC(=O)OCC(CSCCCCCCCCCC)SCCCCCCCCCC)CCc1ccccn1)SCCCCCCCCCC", "note": "(centres unmarked) [I-13]", "values": [
      {"measurement": "LNP pKa", "setting": "[4]", "result": "low LNP pKa values"},
      {"measurement": "in vitro gene silencing (firefly luciferase, Luc/Ren)", "setting": "[5]", "result": "poor gene silencing"}
    ]},
    {"compound": "CCCCCCCCCCSCC(COC(=O)CCN(CCC(=O)OCC(CSCCCCCCCCCC)SCCCCCCCCCC)CCC1CCCC1)SCCCCCCCCCC", "note": "(centres unmarked) [I-18]", "values": [
      {"measurement": "particle size / nanoparticle formation", "setting": "[7]", "result": "able to form nanoparticles"},
      {"measurement": "in vitro gene silencing (firefly luciferase, Luc/Ren)", "setting": "[5]", "result": "poor gene silencing; also recorded: unable to silence the target gene"}
    ]},
    {"compound": "CCCCCCCCCCSCC(COC(=O)CCN(CCCn1ccnc1)CCC(=O)OCC(CSCCCCCCCCCC)SCCCCCCCCCC)SCCCCCCCCCC", "note": "(centres unmarked) [I-20]", "values": [
      {"measurement": "LNP pKa", "setting": "[4]", "result": "low LNP pKa values"},
      {"measurement": "in vitro gene silencing (firefly luciferase, Luc/Ren)", "setting": "[5]", "result": "poor gene silencing"}
    ]},
    {"compound": "CCCCCCCCCCSCC(COC(=O)CCN(CCCN1CCCN(C)CC1)CCC(=O)OCC(CSCCCCCCCCCC)SCCCCCCCCCC)SCCCCCCCCCC", "note": "(centres unmarked) [I-21]", "values": [
      {"measurement": "LNP pKa", "setting": "[4]", "result": "low pKa values"},
      {"measurement": "in vitro gene silencing (firefly luciferase, Luc/Ren)", "setting": "[5]", "result": "poor gene silencing"},
      {"measurement": "in vitro gene silencing (firefly luciferase, Luc/Ren)", "setting": "[5]; listed as 21", "result": "low gene silencing"}
    ]},
    {"compound": "CCCCCCCCCCSCC(COC(=O)CCN(CCC(=O)OCC(CSCCCCCCCCCC)SCCCCCCCCCC)CCN1CCS(=O)(=O)CC1)SCCCCCCCCCC", "note": "(centres unmarked) [I-28]", "values": [
      {"measurement": "intracellular FRET signal (uptake of intact LNPs)", "setting": "HeLa cells [3]", "result": "did not give an intracellular FRET signal"},
      {"measurement": "LNP pKa", "setting": "[4]", "result": "low LNP pKa values"},
      {"measurement": "in vitro gene silencing (firefly luciferase, Luc/Ren)", "setting": "[5]", "result": "limited gene silencing performance"},
      {"measurement": "cellular uptake", "setting": "HeLa cells [6]", "result": "relatively high uptake"}
    ]},
    {"compound": "CCCCCCCCCCSCC(COC(=O)CCN(CCC(=O)OCC(CSCCCCCCCCCC)SCCCCCCCCCC)C1CCN(Cc2ccccc2)CC1)SCCCCCCCCCC", "note": "(centres unmarked) [I-29]", "values": [
      {"measurement": "LNP pKa", "setting": "[4]", "result": "low LNP pKa values"},
      {"measurement": "in vitro gene silencing (firefly luciferase, Luc/Ren)", "setting": "[5]", "result": "poor gene silencing"}
    ]},
    {"compound": "CCCCCCCCCCSCC(COC(=O)CCN(CCC(=O)OCC(CSCCCCCCCCCC)SCCCCCCCCCC)C1CCN(Cc2ccccc2)C1)SCCCCCCCCCC", "note": "(centres unmarked) [I-30]", "values": [
      {"measurement": "LNP pKa", "setting": "[4]", "result": "low LNP pKa values"},
      {"measurement": "in vitro gene silencing (firefly luciferase, Luc/Ren)", "setting": "[5]", "result": "poor gene silencing"}
    ]}
  ]
}
